Reference: patent US20180353483A1, “PHARMACEUTICAL COMPOSITIONS AND METHODS FOR INDOLEAMINE, 2, 3-DIOXYGENASE INHIBITION AND INDICATIONS THEREFOR” (Incyte Corporation, priority 2015, published 2018)
Where two headings read alike, the source gives them in different places.

Assay: Pharmacokinetics of Compound 1 in combination with MK-3475 in subjects with various cancers
Assay type: in vivo, human
Conditions: human, plasma, oral; for tmax: read-out: tmax; for concentration at 8 day (cycle 1): read-out: Cmin
Protocol: The subjects were not limited to a specific cancers and study include subjects with various cancers. […] One treatment cycle consisted of 21 days. […] Additional subjects were enrolled in a cohort to achieve the minimum of 3 evaluable subjects if dropouts or dose interruptions or reductions occur that result in a subject being non-evaluable for DLTs. […] An additional safety cohort was opened at 100 mg BID in parallel to 300 mg BID being tested. This may also be limited to subjects with melanoma, NSCLC, or specific cancer types from among those included in Phase 1. The RP2D was selected from the evaluated safety expansions.
If a dose was missed by more than 4 hours, that dose was skipped and was resumed at the scheduled time.
Pharmacokinetic samples were obtained at the visits of Cycle 1 Day 1, Cycle 1 Day 8 and Cycle 2 Day 1. […] The exact date and time of the PK blood draws were recorded in the eCRF along with the date and time of the last dose of study drug and details of the last meal preceding the blood draw.
The planned PK time points were used for preliminary PK analyses.

[1] = 100 mg BID, Diagnosis DLBCL, steady state C1D8, individual values of 2 subjects
[2] = 100 mg BID, Diagnosis GU, steady state C1D8, mean ± SD
[3] = 100 mg BID, Diagnosis NSCLC PD-L1 High, steady state C1D8, mean ± SD

SMILES: NS(=O)(=O)NCCNc1nonc1C(=NO)Nc1ccc(F)c(Br)c1 [Compound 1, 4-({2-[(aminosulfonyl)amino]ethyl}amino)-N-(3-bromo-4-fluorophenyl)-N′-hydroxy-1,2,5-oxadiazole-3-carboximidamide]
- AUC(0-t) (100 mg BID, All diagnoses, steady state C1D8, geometric mean, read-out: AUC0-12 h (converted)): 4.26 µM·h
- Cmax (100 mg BID, All diagnoses, steady state C1D8, mean ± SD): 1100 ± 467 nM
- AUC(0-t) (100 mg BID, All diagnoses, steady state C1D8, mean ± SD, read-out: AUC0-12 h (converted)): 4.62 ± 2.14 µM·h
- Cmax [1]: 883 nM
- AUC(0-t) (100 mg BID, Diagnosis DLBCL, steady state C1D8, individual values of 2 subjects, read-out: AUC0-12 h (converted)): 5.32 µM·h
- tmax [1]: 4 h
- Cmax (100 mg BID, Diagnosis GU, steady state C1D8, geometric mean): 1030 nM
- AUC(0-t) (100 mg BID, Diagnosis GU, steady state C1D8, geometric mean, read-out: AUC0-12 h (converted)): 4.41 µM·h
- Cmax [2]: 1100 ± 400 nM
- AUC(0-t) (100 mg BID, Diagnosis GU, steady state C1D8, mean ± SD, read-out: AUC0-12 h (converted)): 4.98 ± 3.01 µM·h
- concentration at 8 day (cycle 1) [2]: 154 ± 203 nM
- Cmax (100 mg BID, Diagnosis MEL, steady state C1D8, geometric mean): 945 nM
- AUC(0-t) (100 mg BID, Diagnosis MEL, steady state C1D8, geometric mean, read-out: AUC0-12 h (converted)): 3.57 µM·h
- Cmax (100 mg BID, Diagnosis MEL, steady state C1D8, mean ± SD): 1000 ± 347 nM
- AUC(0-t) (100 mg BID, Diagnosis MEL, steady state C1D8, mean ± SD, read-out: AUC0-12 h (converted)): 3.68 ± 0.852 µM·h
- AUC(0-t) (100 mg BID, Diagnosis NSCLC PD-L1 High, steady state C1D8, geometric mean, read-out: AUC0-12 h (converted)): 4.15 µM·h
- Cmax [3]: 939 ± 549 nM
- AUC(0-t) (100 mg BID, Diagnosis NSCLC PD-L1 High, steady state C1D8, mean ± SD, read-out: AUC0-12 h (converted)): 4.43 ± 1.81 µM·h
- concentration at 8 day (cycle 1) [3]: 159 ± 77.7 nM
- tmax (100 mg BID, Diagnosis NSCLC PD-L1 High, steady state C1D8, median): 3 h
- Cmax (100 mg BID, Diagnosis NSCLC PD-L1 Low/NE, steady state C1D8, geometric mean): 867 nM
- AUC(0-t) (100 mg BID, Diagnosis NSCLC PD-L1 Low/NE, steady state C1D8, geometric mean, read-out: AUC0-12 h (converted)): 4.3 µM·h
- Cmax (100 mg BID, Diagnosis NSCLC PD-L1 Low/NE, steady state C1D8, mean ± SD): 879 ± 156 nM
- AUC(0-t) (100 mg BID, Diagnosis NSCLC PD-L1 Low/NE, steady state C1D8, mean ± SD, read-out: AUC0-12 h (converted)): 4.35 ± 0.828 µM·h
- Cmax (100 mg BID, Diagnosis OC, steady state C1D8, geometric mean): 1110 nM
- AUC(0-t) (100 mg BID, Diagnosis OC, steady state C1D8, geometric mean, read-out: AUC0-12 h (converted)): 4.34 µM·h
- Cmax (100 mg BID, Diagnosis OC, steady state C1D8, mean ± SD): 1200 ± 487 nM
- AUC(0-t) (100 mg BID, Diagnosis OC, steady state C1D8, mean ± SD, read-out: AUC0-12 h (converted)): 4.66 ± 2.11 µM·h
- Cmax (100 mg BID, Diagnosis SCCHN, steady state C1D8, geometric mean): 821 nM
- AUC(0-t) (100 mg BID, Diagnosis SCCHN, steady state C1D8, geometric mean, read-out: AUC0-12 h (converted)): 3.81 µM·h
- Cmax (100 mg BID, Diagnosis SCCHN, steady state C1D8, mean ± SD): 987 ± 612 nM
- AUC(0-t) (100 mg BID, Diagnosis SCCHN, steady state C1D8, mean ± SD, read-out: AUC0-12 h (converted)): 4.29 ± 2.3 µM·h
- Cmax (100 mg BID, Diagnosis TNBC, steady state C1D8, geometric mean): 1150 nM
- AUC(0-t) (100 mg BID, Diagnosis TNBC, steady state C1D8, geometric mean, read-out: AUC0-12 h (converted)): 4.69 µM·h
- Cmax (100 mg BID, Diagnosis TNBC, steady state C1D8, mean ± SD): 1210 ± 433 nM
- AUC(0-t) (100 mg BID, Diagnosis TNBC, steady state C1D8, mean ± SD, read-out: AUC0-12 h (converted)): 5.01 ± 2.09 µM·h
- Cmax (100 mg BID, Dose Reduction By C4D1 subjects (Table 13), steady state C1D8, geometric mean): 953 nM
- AUC(0-t) (100 mg BID, Dose Reduction By C4D1 subjects (Table 13), steady state C1D8, geometric mean, read-out: AUC0-12 h (converted)): 4.42 µM·h
- Cmax (100 mg BID, Dose Reduction By C4D1 subjects (Table 13), steady state C1D8, mean ± SD): 1040 ± 551 nM
- AUC(0-t) (100 mg BID, Dose Reduction By C4D1 subjects (Table 13), steady state C1D8, mean ± SD, read-out: AUC0-12 h (converted)): 5.1 ± 3.59 µM·h
- Cmax (100 mg, All diagnoses, first dose, geometric mean): 830 nM
- AUC(0-t) (100 mg, All diagnoses, first dose, geometric mean, read-out: AUC0-t): 2.63 µM·h
- Cmax (100 mg, All diagnoses, first dose, mean ± SD): 937 ± 469 nM
- AUC(0-t) (100 mg, All diagnoses, first dose, mean ± SD, read-out: AUC0-t): 2.87 ± 1.19 µM·h
- AUC(0-t) (100 mg, Cohort 3, 100 mg BID, steady state C1D8, geometric mean, read-out: AUC0-12 h (converted)): 3.67 µM·h
- Cmax (100 mg, Cohort 3, 100 mg BID, steady state C1D8, mean ± SD): 956 ± 497 nM
- AUC(0-t) (100 mg, Cohort 3, 100 mg BID, steady state C1D8, mean ± SD, read-out: AUC0-12 h (converted)): 3.91 ± 1.35 µM·h
- Cmax (100 mg, Cohort 3, 100 mg, first dose, geometric mean): 521 nM
- AUC(0-t) (100 mg, Cohort 3, 100 mg, first dose, geometric mean, read-out: AUC0-t): 1.89 µM·h
- Cmax (100 mg, Cohort 3, 100 mg, first dose, mean ± SD): 632 ± 508 nM
- AUC(0-t) (100 mg, Cohort 3, 100 mg, first dose, mean ± SD, read-out: AUC0-t): 2.09 ± 1.15 µM·h
- tmax (100 mg, Cohort 3, 100 mg, first dose, median): 4 h
- AUC(0-t) (100 mg, Cohort 5, 100 mg BID, steady state C1D8, geometric mean, read-out: AUC0-12 h (converted)): 3.53 µM·h
- Cmax (100 mg, Cohort 5, 100 mg BID, steady state C1D8, mean ± SD): 905 ± 421 nM
- AUC(0-t) (100 mg, Cohort 5, 100 mg BID, steady state C1D8, mean ± SD, read-out: AUC0-12 h (converted)): 3.79 ± 1.43 µM·h
- Cmax (100 mg, Cohort 5, 100 mg, first dose, geometric mean): 787 nM
- AUC(0-t) (100 mg, Cohort 5, 100 mg, first dose, geometric mean, read-out: AUC0-t): 2.46 µM·h
- Cmax (100 mg, Cohort 5, 100 mg, first dose, mean ± SD): 852 ± 340 nM
- AUC(0-t) (100 mg, Cohort 5, 100 mg, first dose, mean ± SD, read-out: AUC0-t): 2.58 ± 0.778 µM·h
- tmax (100 mg, Cohort 5, 100 mg, first dose, median): 1.5 h
- Cmax (100 mg, Diagnosis DLBCL, first dose, geometric mean): 664 nM
